These results are taken from patent US4064227A, “Radioimmunoassay method for the determination of cardiotonic glycosides” (Mallinckrodt, Inc., priority 1975, dated 1977).

“And” between values parts separate entries of the source, which are not always exact repeats. Equal values may be shown once.

Assay [1] relates to digoxin antiserum (antibody). The assay is described as follows: radioimmunoassay: % of I-125 hapten bound by antibody in presence of digoxin standards (standard curve). The format is binding, goats. The following applies: for Mean % bound: mean of triplicate; for % bound: single vial. The procedure:
(§1) The relative amounts of antibody bound radioactive hapten and unbound radioactive hapten are then determined. Preferably, this is accomplished by a determination of the radioactive hapten in each vial by means of a gamma counter. The count rate of vial components following removal of the resin strip reflects the serum concentration of cardiotonic glycoside. A precount determination of radioactivity in the vial is made at the outset of the test on a gamma counter. The percent of radioactive hapten which is antibody bound is then calculated as follows: [formula] With increasing quantities of nonradioactive cardiotonic glycoside (patient or standard), the percent radioactive hapten bound by the antibody decreases. Based upon this principle, a standard curve is prepared by plotting the percent radioactive hapten bound by each of a series of standard sera versus their respective cardiotonic glycosides concentration. The patient's total circulating serum cardiotonic glycoside concentration is then readily determined by comparing the percent radioactive hapten bound in the patient's serum sample to the standard curve.
This serum is produced in goats by the monthly injection of 7.5 mg of BSA-Digoxin conjugate emulsified in complete Freunds adjuvant. The conjugate is prepared by periodate oxidation according to Butler and Chen, Biochem J. 1970. Twenty mg are dissolved in one ml of phosphate buffer solution which is added dropwise with rapid mixing through a 1.0 ml tuberculin syringe to an equal volume of complete adjuvant. The material is injected into multiple subcutaneous sites.
The final dilutions are such that they insure binding eq 60 ± 5% of 3-0-succinyl digoxigenin-L-tyrosine* and displacement by non-radioactive digoxin.
A. Reaction vials: To 99 parts phosphate buffer solution add 1 part of reagent alcohol containing 7-100 nCi/10 ul of 3-0-succinyl digoxigenin tyrosine. Mix mechanically for 1 minute and transfer to an automatic pipette or dispensing device. 1 ml of the above prepared combination reagent is transferred to each reaction vial and the vials are stored at -20° C. (or lower).
C. Digoxin, antiserum diluted as described above to contain the dilution of antibody binding 60% of a 7-100 nc quantity of 3-0-succinyl digoxigenin tyrosine 125-I.
(§2) The following procedure is employed in carrying out the radioimmumoassay method of the invention to prepare a standard curve.
(§3) 1. The required number of reaction vials is removed from the freezer and the net precount per minute is determined for each vial during or after thawing. The thawed reaction vials are gently agitated. Preferably, the test is carried out in triplicate.
(§4) 2. 50 microliters each of the 0, 0.4, 1.0, 2.0, 3.0 and 5.0 ng/ml standard is added to 18 reaction vials.
(§5) 3. 50 microliters of antiserum is added to each of the reaction vials and the caps replaced.
(§6) 4. The vial contents are mixed by rotating for one minute on a rotator at 12-14 rpm or by gently agitating the vial rack.
(§7) 5. The reaction vials are incubated at room temperature for 30 minutes ± 5 minutes.
(§8) 6. One ion-exchange resin strip is inserted in each reaction vial and the caps replaced.
(§9) 7. The reaction vials are rotated for 30 minutes at ambient temperature (20° C. to 30° C.) on a rotator which produces end-over-end mixing at 12-14 rpm.
(§10) 8. The resin strips are carefully removed and discarded. The resin strips should be allowed to drain over the vials by touching the strip lightly on top of the vial prior to replacing the vial caps.
(§11) 9. The net postcount per minute is determined for each reaction vial.
(§12) 10. The % I-125 bound is calculated by dividing the net CPM postcount by the net CPM precount and multiplying by 100. [formula]
11. The values obtained should range from 60 + 5% at the 0 ng/ml concentration of digoxin/ml of serum to 20 ± 5% at 10 ng/ml.
The above procedure was followed for 3-succinyl-digoxigenin-L-tyrosin, 3-adipyl-digoxigenin-L-tryosine and 3-carbodigoxigenin-glycyl-L-tyrosine. […]

For assay [2], the system named is antiserum containing antibody. Put plainly: radioimmunoassay: % of I-125 hapten bound by antibody in presence of digitoxin standards (standard curve). The following applies: for Mean % bound: mean of triplicate; for % bound: single vial. It counts as binding. The procedure:
as §1
These are produced by drying U.S.P. Reference Digitoxin at 100° C. for 2 hours in a vacuum desiccator. 50 mg is quantitatively transferred to a 100 ml volumetric flask and brought to that volume with methyl alcohol at 25° C. After mixing, 1 ml is transferred to another 100 ml volumetric flask and diluted to 10 ml with methyl alcohol. This 10 ml is diluted to 100 ml with distilled water. 1 ml is transferred to a 50 ml volumetric flask and diluted to 50 ml with digitoxin free normal human serum containing 0.1% NaN3. The product contains 100 ng/ml of digitoxin. This is diluted with normal human serum containing to 0.1% NaN3 to form a […] standard.
as §2, §3, §4, §5, §6, §7, §8, §9, §10, §11, §12
Essentially the same procedure was followed for 3-succinyl-digitoxigenin-L-tyrosine except 25 microliters of each digitoxin standard was used.

The mark [3] stands for this setting: digitoxin standard 0.0 ng/ml, 25 microliters.
Setting [4] is: digitoxin standard 4.0 ng/ml, 25 microliters.
Where [5] appears, read: digitoxin standard 10.0 ng/ml, 25 microliters.
[6] abbreviates: digitoxin standard 20.0 ng/ml, 25 microliters.
The mark [7] stands for this setting: digitoxin standard 30.0 ng/ml, 25 microliters.
The mark [8] stands for this setting: digitoxin standard 50.0 ng/ml, 25 microliters.
[9] abbreviates: digitoxin standard 100.0 ng/ml, 25 microliters.

With `C[C@]12CC[C@H](OC(=O)CCCCC(=O)N[C@@H](Cc3ccc(O)cc3)C(=O)O)C[C@H]1CC[C@@H]1[C@@H]2C[C@@H](O)[C@]2(C)[C@@H](C3=CC(=O)OC3)CC[C@]12O` [3-adipyl-digoxigenin-L-tyrosine], the Mean % bound in assay [1] (control, no antibody) is on record as 3.9%; in assay [1] (digoxin standard 0 ng/ml) it was 65.2%; in assay [1] (digoxin standard 1.0 ng/ml), 46.8%; in assay [1] (digoxin standard 2.0 ng/ml) it was 33.4%; in assay [1] (digoxin standard 3.0 ng/ml) it was 25.4%; in assay [1] (digoxin standard 5.0 ng/ml), 17.2%. Besides, the Mean % bound in assay [1] (digoxin standard .4 ng/ml) was found to be 57.5%. In addition, the “% bound” value in assay [1] (control, no antibody) was 4.0% and 3.6%; in assay [1] (digoxin standard 0 ng/ml) it was 66.4% and 64.8% and 64.3%; in assay [1] (digoxin standard 1.0 ng/ml) it was 46.1% and 47.0% and 47.3%; in assay [1] (digoxin standard 2.0 ng/ml) it was 34.8% and 32.2% and 33.3%; in assay [1] (digoxin standard 3.0 ng/ml) it was 26.1% and 25.1% and 25.0%; in assay [1] (digoxin standard 5.0 ng/ml), 16.9% and 16.5% and 18.0%. Moreover, the “% bound” value in assay [1] (digoxin standard .4 ng/ml) is 57.8% and 57.4% and 57.2%.

For the compound `C[C@]12CC[C@H](OC(=O)CCC(=O)N[C@@H](Cc3ccc(O)cc3)C(=O)O)C[C@H]1CC[C@@H]1[C@@H]2C[C@@H](O)[C@]2(C)[C@@H](C3=CC(=O)OC3)CC[C@]12O` [3-succinyl-digoxigenin-L-tyrosine], the Mean % bound is on record as 5.5% in assay [1] (control, no antibody); 66.8% in assay [1] (digoxin standard 0 ng/ml); 49.0% in assay [1] (digoxin standard 1.0 ng/ml); 35.5% in assay [1] (digoxin standard 2.0 ng/ml); 27.2% in assay [1] (digoxin standard 3.0 ng/ml); 19.6% in assay [1] (digoxin standard 5.0 ng/ml). In addition, in assay [1] (digoxin standard .4 ng/ml), the Mean % bound came to 58.5%. For the same compound, the “% bound” value in assay [1] (control, no antibody) is 5.7% and 6.0% and 4.7%; in assay [1] (digoxin standard 0 ng/ml) it was 67.2% and 65.4% and 67.7%; in assay [1] (digoxin standard 1.0 ng/ml), 48.6% and 49.8%; in assay [1] (digoxin standard 2.0 ng/ml), 35.0% and 34.6% and 36.9%; in assay [1] (digoxin standard 3.0 ng/ml) it was 27.4% and 26.7% and 27.5%; in assay [1] (digoxin standard 5.0 ng/ml) it was 19.9% and 19.3% and 19.6%. Also, the “% bound” value in assay [1] (digoxin standard .4 ng/ml) is 59.3% and 57.2% and 59.0%.

Turning to `C[C@]12CC[C@H](OC(=O)CCC(=O)N[C@@H](Cc3ccc(O)cc3)C(=O)O)C[C@H]1CC[C@@H]1[C@@H]2CC[C@]2(C)[C@@H](C3=CC(=O)OC3)CC[C@]12O` [3-succinyl digitoxigenin-L-tyrosine], the Mean % bound is 18.8% in assay [2] (control, no antibody); 70.2% in assay [2] (setting [3]); 67.3% in assay [2] (setting [4]); 59.9% in assay [2] (setting [5]); 46.8% in assay [2] (setting [6]); 35.6% in assay [2] (setting [7]). The Mean % bound amounted to 27.7% in assay [2] (setting [8]) and 22.9% in assay [2] (setting [9]). In addition, the “% bound” value in assay [2] (control, no antibody) was 18.0% and 18.9% and 19.4%; in assay [2] (setting [3]) it was 70.8% and 70.7% and 69.0%; in assay [2] (setting [4]), 67.3% and 67.6% and 66.9%; in assay [2] (setting [5]), 59.9% and 60.2% and 59.5%; in assay [2] (setting [6]), 45.8% and 47.3% and 47.2%; in assay [2] (setting [7]), 33.9% and 36.7% and 36.2%. The “% bound” value in assay [2] (setting [8]) was 26.5% and 29.4% and 27.1%; in assay [2] (setting [9]), 22.2% and 22.5% and 24.0%.

For `C[C@]12CC[C@H](OC(=O)NCC(=O)N[C@@H](Cc3ccc(O)cc3)C(=O)O)C[C@H]1CC[C@@H]1[C@@H]2C[C@@H](O)[C@]2(C)[C@@H](C3=CC(=O)OC3)CC[C@]12O` [3-carbodigoxigenin-glycyl-L-tyrosine], the Mean % bound in assay [1] (control, no antibody) was determined as 5.2%; in assay [1] (digoxin standard 0 ng/ml), 56.6%; in assay [1] (digoxin standard 1.0 ng/ml), 41.3%; in assay [1] (digoxin standard 2.0 ng/ml), 31.6%; in assay [1] (digoxin standard 3.0 ng/ml) it was 25.3%; in assay [1] (digoxin standard 5.0 ng/ml) it was 17.9%. Moreover, the Mean % bound in assay [1] (digoxin standard .4 ng/ml) was determined as 51.3%. Moreover, the “% bound” value is 5.5% and 5.4% and 4.8% in assay [1] (control, no antibody); 57.0% and 55.8% and 56.9% in assay [1] (digoxin standard 0 ng/ml); 39.4% and 41.7% and 42.9% in assay [1] (digoxin standard 1.0 ng/ml); 31.5% and 31.7% and 31.4% in assay [1] (digoxin standard 2.0 ng/ml); 25.5% and 23.3% and 26.9% in assay [1] (digoxin standard 3.0 ng/ml); 18.3% and 18.2% and 17.1% in assay [1] (digoxin standard 5.0 ng/ml). Also, the “% bound” value in assay [1] (digoxin standard .4 ng/ml) was 50.8% and 51.4% and 51.8%.
